# Laboratory results: patent US11566030B2, “Substituted 2,6-dihydropyrrolo[3,4-c]pyrazoles as pyruvate kinase activators” (priority 2021, dated 2023)
# Like-named read-outs stand apart in the source and are kept apart here.
# Target: T1, Human pyruvate kinase R (PKR) (Homo sapiens, UniProt P30613)
# T1 construct: Human pyruvate kinase R (PKR), residues 14-574; 6xHis-8xArg-SUMO (N, cleaved yes); host or cells: E. coli
# Experiment: Biochemical assay for activation of pyruvate kinase R (Kinase-Glo luminescence, ATP generation)
# Conditions: for Emax: read-out: PKR % activation, maximal activation level achieved with each compound relative to the activation level achieved by AG-348 @ 10 μM
# In short: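 Recombinant human PKR (residues 14-574) expressed in E. coli with His-Arg-SUMO tag, tag cleaved, purified by Ni-NTA, anion exchange and size exclusion. Activation read as ATP generation by Kinase-Glo luminescence.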
# [1] = PKR AC50 (nM), 0.1 nM PKR, 0.3 mM ADP, 0.1 mM PEP, 1% DMSO
# T1 sequence (P30613 14-574): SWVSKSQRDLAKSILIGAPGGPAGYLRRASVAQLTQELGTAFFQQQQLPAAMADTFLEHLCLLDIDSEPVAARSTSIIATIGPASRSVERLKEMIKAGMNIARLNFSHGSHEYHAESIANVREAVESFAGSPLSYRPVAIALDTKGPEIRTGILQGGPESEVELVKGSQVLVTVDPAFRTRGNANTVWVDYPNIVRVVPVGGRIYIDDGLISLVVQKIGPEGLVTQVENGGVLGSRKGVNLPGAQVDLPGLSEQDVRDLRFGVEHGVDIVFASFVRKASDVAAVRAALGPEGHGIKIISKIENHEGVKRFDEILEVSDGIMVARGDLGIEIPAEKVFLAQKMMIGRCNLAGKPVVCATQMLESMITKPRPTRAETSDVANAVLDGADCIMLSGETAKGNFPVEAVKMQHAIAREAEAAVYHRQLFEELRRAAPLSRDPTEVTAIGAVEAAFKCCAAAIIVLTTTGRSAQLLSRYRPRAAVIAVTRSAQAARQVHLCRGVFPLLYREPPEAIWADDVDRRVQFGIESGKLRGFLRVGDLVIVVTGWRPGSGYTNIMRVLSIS
AC50 [1] [nM],Emax [%],AC50 [nM],SMILES
17,66,,"O=C([C@H](CO)c1cccc(F)c1F)N1Cc2cn(S(=O)(=O)c3cnn(CC(F)(F)F)c3)nc2C1 [Compound 73, (2S)-2-(2,3-difluorophenyl)-3-hydroxy-1-{2-[1-(2,2,2-trifluoroethyl)pyrazol-4-ylsulfonyl]-4H,6H-pyrrolo[3,4-c]pyrazol-5-yl}propan-1-one]"
440,72,,"O=C([C@@H](CO)c1cccc(F)c1F)N1Cc2cn(S(=O)(=O)c3cnn(CC(F)(F)F)c3)nc2C1 [Compound 74, (2R)-2-(2,3-difluorophenyl)-3-hydroxy-1-{2-[1-(2,2,2-trifluoroethyl)pyrazol-4-ylsulfonyl]-4H,6H-pyrrolo[3,4-c]pyrazol-5-yl}propan-1-one]"
0.51,3,,"Cc1cn(CC(F)(F)F)nc1S(=O)(=O)n1cc2c(n1)CN(C(=O)C1(c3ncccc3Cl)COC1)C2 [Compound 75, (3-(3-chloropyridin-2-yl)oxetan-3-yl)(2-((4-methyl-1-(2,2,2-trifluoroethyl)-1H-pyrazol-3-yl)sulfonyl)-2,6-dihydropyrrolo[3,4-c]pyrazol-5(4H)-yl)methanone]"
3800,3,,"Cc1cn(CC(F)F)nc1S(=O)(=O)n1cc2c(n1)CN(C(=O)[C@H](CO)c1ccccc1)C2 [Compound 76, (2S)-1-{2-[1-(2,2-difluoroethyl)-4-methylpyrazol-3-ylsulfonyl]-4H,6H-pyrrolo[3,4-c]pyrazol-5-yl}-3-hydroxy-2-phenylpropan-1-one]"
0.51,16,,"Cc1cn(CC(F)F)nc1S(=O)(=O)n1cc2c(n1)CN(C(=O)[C@@H](CO)c1ccccc1)C2 [Compound 77, (2R)-1-{2-[1-(2,2-difluoroethyl)-4-methylpyrazol-3-ylsulfonyl]-4H,6H-pyrrolo[3,4-c]pyrazol-5-yl}-3-hydroxy-2-phenylpropan-1-one]"
,32,7.1,"Cc1cn(CC(F)F)nc1S(=O)(=O)n1cc2c(n1)CN(C(=O)[C@H](CO)c1ccccc1F)C2 [Compound 78, (2S)-1-{2-[1-(2,2-difluoroethyl)-4-methylpyrazol-3-ylsulfonyl]-4H,6H-pyrrolo[3,4-c]pyrazol-5-yl}-2-(2-fluorophenyl)-3-hydroxypropan-1-one]"
,33,550,"Cc1cn(CC(F)F)nc1S(=O)(=O)n1cc2c(n1)CN(C(=O)[C@@H](CO)c1ccccc1F)C2 [Compound 79, (2R)-1-{2-[1-(2,2-difluoroethyl)-4-methylpyrazol-3-ylsulfonyl]-4H,6H-pyrrolo[3,4-c]pyrazol-5-yl}-2-(2-fluorophenyl)-3-hydroxypropan-1-one]"
,73,8.9,"Cc1cn(CC(F)F)nc1S(=O)(=O)n1cc2c(n1)CN(C(=O)[C@H](CO)c1ccccc1Cl)C2 [Compound 80, (2S)-2-(2-chlorophenyl)-1-(2-{[1-(2,2-difluoroethyl)-4-methyl-1H-pyrazol-3-yl]sulfonyl}-2H,4H,5H,6H-pyrrolo[3,4-c]pyrazol-5-yl)-3-hydroxypropan-1-one]"
,62,500,"Cc1cn(CC(F)F)nc1S(=O)(=O)n1cc2c(n1)CN(C(=O)[C@@H](CO)c1ccccc1Cl)C2 [Compound 81, (2R)-2-(2-chlorophenyl)-1-{2-[1-(2,2-difluoroethyl)-4-methylpyrazol-3-ylsulfonyl]-4H,6H-pyrrolo[3,4-c]pyrazol-5-yl}-3-hydroxypropan-1-one]"
8.3,19,,"Cc1cn(CC(F)F)nc1S(=O)(=O)n1cc2c(n1)CN(C(=O)C1(c3ncccc3Cl)COC1)C2 [Compound 82, 3-chloro-2-(3-{2-[1-(2,2-difluoroethyl)-4-methylpyrazol-3-ylsulfonyl]-4H,6H-pyrrolo[3,4-c]pyrazole-5-carbonyl}oxetan-3-yl)pyridine]"
,69,15,"O=C([C@H](CO)c1ccccc1)N1Cc2cn(S(=O)(=O)c3cnn(CC(F)(F)F)c3)nc2C1 [Compound 83, (2S)-3-hydroxy-2-phenyl-1-{2-[1-(2,2,2-trifluoroethyl)pyrazol-4-ylsulfonyl]-4H,6H-pyrrolo[3,4-c]pyrazol-5-yl}propan-1-one]"
,73,2500,"O=C([C@@H](CO)c1ccccc1)N1Cc2cn(S(=O)(=O)c3cnn(CC(F)(F)F)c3)nc2C1 [Compound 84, (2R)-3-hydroxy-2-phenyl-1-{2-[1-(2,2,2-trifluoroethyl)pyrazol-4-ylsulfonyl]-4H,6H-pyrrolo[3,4-c]pyrazol-5-yl}propan-1-one]"
,59,,"Cc1nn(CC(F)F)c(C)c1S(=O)(=O)n1cc2c(n1)CN(C(=O)[C@H](CO)c1ccccc1)C2 [Compound 87, (2S)-1-[2-[1-(2,2-difluoroethyl)-3,5-dimethylpyrazol-4-ylsulfonyl]-4H,6H-pyrrolo[3,4-c]pyrazol-5-yl]-3-hydroxy-2-phenylpropan-1-one]"
680,0,,"Cc1nn(CC(F)F)c(C)c1S(=O)(=O)n1cc2c(n1)CN(C(=O)[C@@H](CO)c1ccccc1)C2 [Compound 88, (2R)-1-[2-[1-(2,2-difluoroethyl)-3,5-dimethylpyrazol-4-ylsulfonyl]-4H,6H-pyrrolo[3,4-c]pyrazol-5-yl]-3-hydroxy-2-phenylpropan-1-one]"
,105,1200,"Cc1c(S(=O)(=O)n2cc3c(n2)CN(C(=O)[C@@H](CO)c2ccccc2)C3)cnn1CC(F)F [Compound 89, (R)-1-(2-((1-(2,2-difluoroethyl)-5-methyl-1H-pyrazol-4-yl)sulfonyl)-2,6-dihydropyrrolo[3,4-c]pyrazol-5(4H)-yl)-3-hydroxy-2-phenylpropan-1-one]"
5.7,131,,"O=C([C@H](CO)c1ccccc1Cl)N1Cc2cn(S(=O)(=O)c3cnn(CCF)c3)nc2C1 [Compound 90, (2S)-2-(2-chlorophenyl)-1-{2-[1-(2-fluoroethyl)pyrazol-4-ylsulfonyl]-4H,6H-pyrrolo[3,4-c]pyrazol-5-yl}-3-hydroxypropan-1-one]"
91,164,,"O=C([C@@H](CO)c1ccccc1Cl)N1Cc2cn(S(=O)(=O)c3cnn(CCF)c3)nc2C1 [Compound 91, (2R)-2-(2-chlorophenyl)-1-{2-[1-(2-fluoroethyl)pyrazol-4-ylsulfonyl]-4H,6H-pyrrolo[3,4-c]pyrazol-5-yl}-3-hydroxypropan-1-one]"
34,18,,"CCn1cc(S(=O)(=O)n2cc3c(n2)CN(C(=O)[C@H](CO)c2ccccc2)C3)c(C(F)(F)F)n1 [Compound 94, (2S)-1-{2-[1-ethyl-3-(trifluoromethyl)pyrazol-4-ylsulfonyl]-4H,6H-pyrrolo[3,4-c]pyrazol-5-yl}-3-hydroxy-2-phenylpropan-1-one]"
2900,15,,"CCn1cc(S(=O)(=O)n2cc3c(n2)CN(C(=O)[C@@H](CO)c2ccccc2)C3)c(C(F)(F)F)n1 [Compound 95, (2R)-1-{2-[1-ethyl-3-(trifluoromethyl)pyrazol-4-ylsulfonyl]-4H,6H-pyrrolo[3,4-c]pyrazol-5-yl}-3-hydroxy-2-phenylpropan-1-one]"
,93,6.4,Cc1c(S(=O)(=O)n2cc3c(n2)CN(C(=O)[C@H](CO)c2ccccc2F)C3)cnn1CCF [Compound 96]
